Among the data in PubChem BioAssay (NCI) are TGI values, retold here.

Test systems include A498 renal; BT-549 breast; CAKI-1 renal; EKVX NSCLC; HCC-2998 colon; HCT-116 colon; K-562 leukemia; LOX IMVI melanoma; MALME-3M melanoma; MCF7 breast; MDA-MB-435; NCI-H460 lung; OVCAR-3 ovarian; PC-3 prostate; SF-539 CNS; SK-MEL-2 melanoma; SK-MEL-5 melanoma; SN12C renal; SNB-75 CNS; SK-OV-3 ovarian.
Common to all, as to assay: NCI anticancer screen, dose series, 48 h

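Method: 48-hour compound exposure of cells in 96-well plates, five concentrations, linear interpolation of endpoints. Definition used: TGI = concentration required for complete inhibition of growth.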

`Nc1ncc(Br)c(NCC2(CO)CCC2)n1`: the TGI in the assay on A498 renal, in the assay with BT-549 breast, in the assay on CAKI-1 renal, with EKVX NSCLC, with HCC-2998 colon and in the assay on HCT-116 colon was over 100 µM each time. For the same compound, the TGI in the assay with K-562 leukemia, in the assay on LOX IMVI melanoma, in the assay on MALME-3M melanoma, in the assay with MCF7 breast, with MDA-MB-435 and in the assay with NCI-H460 lung was over 100 µM in each case. Further, the TGI in the assay with OVCAR-3 ovarian, with PC-3 prostate, in the assay with SF-539 CNS, in the assay with SK-MEL-2 melanoma, in the assay on SK-MEL-5 melanoma and in the assay on SN12C renal was over 100 µM throughout. The compound also returned a TGI with SNB-75 CNS of over 100 µM.

Regarding `CC1=CC(=O)[C@@H](O)[C@]2(C)[C@H]3[C@@]4(O)OC[C@]35[C@H]([C@@H](C)[C@H]4O)[C@@H](OC(=O)C(C)(C)CO)C(=O)O[C@@H]5C[C@@H]12`, the TGI in the assay on A498 renal worked out at 5.39 µM; with BT-549 breast, 0.423 µM; with CAKI-1 renal, 9.88 µM; in the assay with EKVX NSCLC, 15.1 µM; in the assay on HCC-2998 colon, 1 µM; in the assay on HCT-116 colon it was 2.11 µM. The TGI with K-562 leukemia was over 100 µM; with LOX IMVI melanoma, 0.0741 µM; in the assay on MCF7 breast it was over 100 µM; in the assay on MDA-MB-435, 1.65 µM; in the assay with NCI-H460 lung, 0.547 µM; in the assay with OVCAR-3 ovarian it was 1.92 µM. Moreover, the TGI in the assay on PC-3 prostate is 4.84 µM; in the assay on SF-539 CNS it was under 0.0261 µM; with SK-MEL-2 melanoma it was 0.559 µM; in the assay with SK-MEL-5 melanoma it was 0.187 µM; in the assay on SK-OV-3 ovarian it was over 81.4 µM; with SN12C renal, 4.5 µM. This compound returned a TGI with SNB-75 CNS of 2.11 µM.

Turning to `C=CC[C@H]1O[Si](C(C)(C)C)(C(C)(C)C)[C@H](C)[C@H]1C`, the TGI in the assay with A498 renal, in the assay with BT-549 breast, in the assay with CAKI-1 renal, in the assay with EKVX NSCLC, in the assay with HCC-2998 colon and in the assay on HCT-116 colon was over 100 µM throughout. Moreover, the TGI in the assay on K-562 leukemia, in the assay with LOX IMVI melanoma, in the assay on MALME-3M melanoma, in the assay with MCF7 breast, in the assay with MDA-MB-435 and with OVCAR-3 ovarian was over 100 µM each time. For the same compound, the TGI in the assay with PC-3 prostate, with SF-539 CNS, with SK-MEL-2 melanoma, in the assay with SK-MEL-5 melanoma, in the assay on SK-OV-3 ovarian and with SN12C renal was over 100 µM throughout. The same compound returned a TGI in the assay on SNB-75 CNS of over 100 µM.

`N#CC(C#N)=C1C(=Cc2ccc(OCCCCCCCCCCSSCCCCCCCCCCOc3ccc(C=C4C(=C(C#N)C#N)c5ccccc5C4=C(C#N)C#N)cc3)cc2)C(=C(C#N)C#N)c2ccccc21`: the TGI stood at 48.5 µM in the assay on A498 renal; 38.9 µM in the assay on BT-549 breast; 71.2 µM with CAKI-1 renal; 43.1 µM with EKVX NSCLC; 28.9 µM in the assay with HCC-2998 colon; 30.8 µM with HCT-116 colon. The TGI in the assay with K-562 leukemia is 60.4 µM; with LOX IMVI melanoma, 35.6 µM; in the assay on MCF7 breast, 48 µM; in the assay on MDA-MB-435, over 100 µM; in the assay with NCI-H460 lung, 44.7 µM; in the assay on OVCAR-3 ovarian, 89 µM. The TGI in the assay with PC-3 prostate was 47.8 µM; in the assay on SF-539 CNS, 47 µM; in the assay with SK-MEL-2 melanoma it was 64 µM; in the assay with SK-MEL-5 melanoma it was 52.3 µM; in the assay with SNB-75 CNS, over 100 µM.

With `O=c1ccn([C@@H]2C[C@H]2CO)c(=O)[nH]1`, the TGI in the assay on A498 renal, in the assay on BT-549 breast, with CAKI-1 renal, in the assay with EKVX NSCLC, in the assay with HCC-2998 colon and in the assay on HCT-116 colon was over 100 µM throughout. Moreover, the TGI in the assay on K-562 leukemia, in the assay on LOX IMVI melanoma, in the assay on MALME-3M melanoma, in the assay on MCF7 breast, in the assay on MDA-MB-435 and in the assay with NCI-H460 lung was over 100 µM throughout. For the same compound, the TGI in the assay with PC-3 prostate, with SF-539 CNS, with SK-MEL-2 melanoma, with SK-MEL-5 melanoma, in the assay on SN12C renal and with SNB-75 CNS was over 100 µM each time.

In the case of `CC(=O)c1cccc(Nc2nc3ccccc3c3occc23)c1`, the TGI is 30.5 µM in the assay on A498 renal; 39.6 µM in the assay with BT-549 breast; over 100 µM with CAKI-1 renal; over 100 µM in the assay with EKVX NSCLC; over 100 µM with HCC-2998 colon; 50 µM with HCT-116 colon. In addition, the TGI is over 100 µM in the assay with K-562 leukemia; over 100 µM in the assay with LOX IMVI melanoma; 53 µM with MALME-3M melanoma; over 100 µM in the assay with MCF7 breast; over 100 µM with MDA-MB-435; over 100 µM with NCI-H460 lung. The TGI was over 100 µM with OVCAR-3 ovarian; over 100 µM in the assay on PC-3 prostate; 35.6 µM in the assay on SF-539 CNS; 48.6 µM in the assay on SK-MEL-5 melanoma; 40.8 µM in the assay on SK-OV-3 ovarian; 45.6 µM in the assay on SN12C renal. The TGI with SNB-75 CNS was found to be 45.2 µM.

As for `CC(C)=C1C(=O)C[C@]2(C)C[C@H]3O[C@]3(C)CC[C@@H]3O[C@@]3(C)CC[C@@H]12`, the TGI in the assay with A498 renal, in the assay on BT-549 breast, in the assay with CAKI-1 renal, in the assay on EKVX NSCLC, in the assay with HCC-2998 colon and in the assay with HCT-116 colon was over 50 µM each time. Also, the TGI with K-562 leukemia, in the assay with LOX IMVI melanoma, in the assay with MCF7 breast, in the assay on MDA-MB-435, in the assay on NCI-H460 lung and with OVCAR-3 ovarian was over 50 µM in each case. Also, the TGI in the assay with PC-3 prostate, with SF-539 CNS, with SK-MEL-2 melanoma, in the assay on SK-OV-3 ovarian, in the assay on SN12C renal and in the assay on SNB-75 CNS was over 50 µM throughout.

As for `C=C1C[C@@H]2CC[C@@]34CC5O[C@H]6C(O[C@H]7CC[C@H](CC(=O)O[C@@H]8[C@@H](C)[C@@H]9O[C@@H]%10C[C@]%11(C[C@@H]%12O[C@]%13(C[C@H](C)[C@@H]%14O[C@@H]%15CC(C(O)CO)O[C@@H]%15C[C@@H]%14O%13)C[C@H](C)[C@@H]%12O%11)O[C@@H]%10C[C@@H]9O[C@H]8CC8O[C@@H](CC[C@@H]1O2)C[C@@H](C)C8(O)CO)O[C@@H]7[C@@H]6O3)[C@H]5O4` (stereo not given in full), the TGI with A498 renal is over 1 µM; with BT-549 breast, 0.469 µM; in the assay with CAKI-1 renal, over 1 µM; in the assay on EKVX NSCLC it was over 1 µM; in the assay on HCC-2998 colon it was over 1 µM; in the assay on HCT-116 colon, over 1 µM. Further, the TGI with K-562 leukemia, in the assay on LOX IMVI melanoma, in the assay with MALME-3M melanoma, in the assay on MCF7 breast, in the assay with MDA-MB-435 and in the assay on NCI-H460 lung was over 1 µM in each case. The TGI in the assay with OVCAR-3 ovarian, in the assay on PC-3 prostate, with SK-MEL-2 melanoma, in the assay on SK-MEL-5 melanoma, in the assay with SK-OV-3 ovarian and with SN12C renal was over 1 µM in each case. In addition, the TGI in the assay on SNB-75 CNS is over 1 µM.

As to `N#Cc1cccc2c1Sc1ccccc1N2`, the TGI was 58.3 µM with A498 renal; 79.8 µM with BT-549 breast; over 100 µM with CAKI-1 renal; 97.4 µM in the assay with EKVX NSCLC; over 100 µM in the assay on HCC-2998 colon; over 100 µM in the assay with HCT-116 colon. Further, the TGI was over 100 µM with K-562 leukemia; 36.5 µM in the assay on LOX IMVI melanoma; over 100 µM in the assay with MALME-3M melanoma; over 100 µM with MCF7 breast; over 100 µM with MDA-MB-435; over 100 µM in the assay with NCI-H460 lung. The TGI is over 100 µM with OVCAR-3 ovarian; over 100 µM in the assay on PC-3 prostate; 64.2 µM with SF-539 CNS; 1.72 µM in the assay with SK-MEL-5 melanoma; over 100 µM in the assay with SK-OV-3 ovarian; over 100 µM with SN12C renal. Also, the TGI in the assay on SNB-75 CNS stood at 3.15 µM.

With `O=C(OCc1ccccc1)N(CCCCN(CCCNC(=O)C(F)(F)F)C(=O)OCc1ccccc1)CCCNC(=O)C(F)(F)F`, the TGI in the assay on A498 renal was over 100 µM; in the assay on BT-549 breast, over 100 µM; in the assay with CAKI-1 renal it was 3.55 µM; in the assay with EKVX NSCLC, over 100 µM; with HCC-2998 colon, over 100 µM; with HCT-116 colon it was over 100 µM. Moreover, the TGI with K-562 leukemia, in the assay with LOX IMVI melanoma, with MCF7 breast, in the assay with MDA-MB-435, with NCI-H460 lung and in the assay on OVCAR-3 ovarian was over 100 µM throughout. For the same compound, the TGI in the assay on PC-3 prostate, with SF-539 CNS, in the assay on SK-MEL-2 melanoma, in the assay with SK-MEL-5 melanoma, with SK-OV-3 ovarian and in the assay with SN12C renal was over 100 µM each time. Further, the TGI in the assay with SNB-75 CNS was over 100 µM.

Consider `O=c1c2cccnc2n2n1Cc1ccccc1C2`, for which the TGI in the assay with A498 renal, with BT-549 breast, in the assay with CAKI-1 renal, with EKVX NSCLC, with HCC-2998 colon and in the assay on HCT-116 colon was over 100 µM in each case. Moreover, the TGI in the assay with K-562 leukemia, with LOX IMVI melanoma, with MALME-3M melanoma, with MCF7 breast, in the assay with MDA-MB-435 and with NCI-H460 lung was over 100 µM in each case. Further, the TGI with OVCAR-3 ovarian, with PC-3 prostate, with SF-539 CNS, in the assay on SK-MEL-5 melanoma, in the assay on SK-OV-3 ovarian and in the assay on SN12C renal was over 100 µM throughout. The compound further came in with a TGI in the assay on SNB-75 CNS of over 100 µM.
